The source of these data is patent US20080234384A1, “BIARYL AND BIHETEROARYL COMPOUNDS USEFUL IN TREATING IRON DISORDERS” (XENON PHARMACEUTICALS INC., priority 2007, published 2008).

For this experiment, the target named is T1, DMT1 (Homo sapiens, UniProt P49281).
T1 sequence (P49281 1-568): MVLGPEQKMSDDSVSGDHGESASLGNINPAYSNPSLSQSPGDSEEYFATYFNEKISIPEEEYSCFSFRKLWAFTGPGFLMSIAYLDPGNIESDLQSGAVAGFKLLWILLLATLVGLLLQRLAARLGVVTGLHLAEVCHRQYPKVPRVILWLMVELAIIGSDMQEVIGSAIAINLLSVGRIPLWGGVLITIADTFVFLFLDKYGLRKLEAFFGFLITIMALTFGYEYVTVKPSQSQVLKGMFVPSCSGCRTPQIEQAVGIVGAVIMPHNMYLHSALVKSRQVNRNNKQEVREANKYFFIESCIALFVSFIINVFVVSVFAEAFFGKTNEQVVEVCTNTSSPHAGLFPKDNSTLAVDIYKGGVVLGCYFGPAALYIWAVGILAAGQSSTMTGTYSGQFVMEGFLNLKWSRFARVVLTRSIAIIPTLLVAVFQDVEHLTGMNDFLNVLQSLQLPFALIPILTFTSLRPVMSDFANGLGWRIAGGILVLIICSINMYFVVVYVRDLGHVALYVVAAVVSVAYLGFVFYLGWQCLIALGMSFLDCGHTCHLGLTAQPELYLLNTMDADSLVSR
The experiment is described as follows: DMT1 Activity Assay (In Vitro Assay). Format: cell-based. Conditions: read-out: IC50 Activity Level. An excerpt:
In particular, identification of the compounds of the invention ability to modulate, preferably to inhibit, DMT1 activity, can be assessed using a variety of in vitro and in vivo assays, for measuring uptake of reduced iron (Fe^2+). One such protocol involves the screening of chemical agents for ability to modulate the activity of DMT1 thereby identifying it as a modulating agent. The in vitro activity of DMT1 can be measured in cell based assays by either directly measuring iron flux (using a radioactively labelled iron ^55Fe) or by measuring the fluorescence of a cell permeable iron fluorophore such as calcein. Stable cell lines overexpressing DMT1 are exposed to ^55Fe or loaded with calcein and then compound is applied. […] Alternatively, in another format electrophysiological techniques can be used to measure the current or iron or other metals traversing the cell membrane with DMT1 in a Xenopus oocyte or other cell based system (Gunshin et al., Nature, 1997, 31; 388(6641):482-8).
This example discloses various in vitro assay for testing and profiling test agents against DMT1 stably expressed in cells of either an endogenous or recombinant origin. These assays can use stable cell lines overexpressing DMT1 or intestinal cells and intestinal tissue expressing endogenous DMT1. DMT1 function could also be assessed in other cell types that express DMT1. Of greatest relevance would be the erythrocytes (e.g. K562 cells) or hepatocytes (e.g. […]).
DMT1 function can be assessed in a number of ways, including monitoring fluorescence changes of an iron fluorophore (e.g. calcein), monitoring uptake of radiolabelled iron (55Fe or ^59Fe) (Picard et al., J. Biol. Chem., 2000, 275(46):35738-45 and Wetli et al., Chem. Biol. 2006 September; 13(9):965-72), or by assessing the current or transport of iron and other metals into the cells or tissues using standard electrophysiological techniques (Gunshin et al., Nature, 1997, 388(6641):482-8.).
Variations of these assays involve alterations of incubation times, the iron status of the cells and tissues (which may be modulated by chemical chelators or by harvesting from iron deficient animals), the metal cation detected and the pH of the reaction can generally be made by conventional techniques known to those skilled in the art.

As usually defined, the IC50 is the concentration that inhibits the measured activity by half.

Structures can show the parent of a compound that is named as a salt. Where only a bound is given, the exact number is not on record here.

Regarding `N=C(N)SCc1cc(F)ccc1S(=O)(=O)c1ccc(F)cc1CSC(=N)N` [Example 2.4, 2-[2-(2-carbamimidoylsulfanylmethyl-4-fluorophenylsulfonyl)-5-fluorobenzyl]isothiourea dihydrobromide], the IC50 was no less than 1000 nM.
For `N=C(N)CCCc1ccccc1Sc1ccccc1CCCC(=N)N` [Example 6.2, 2-(6-(3-amidinopropyl)phenyl)thio-1-(3-amidinopropyl)benzene], the half-inhibitory concentration (IC50) was no less than 1000 nM.
Consider `N=C(N)SCc1cc(F)ccc1Sc1cc(Cl)ccc1CSC(=N)N` [Example 1.7, 2-[2-(2-carbamimidoylsulfanylmethyl-5-chloro-phenylsulfanyl)-5-fluoro-benzyl]-isothiourea dihydrobromide], for which the 50% inhibitory concentration (IC50) was 100 to 1000 nM.
The same measure for `N=C(N)SCc1ccccc1Sc1ccc(N)cc1CSC(=N)N` [Example 1.19, 2-[2-(2-carbamimidoylsulfanylmethylphenylsulfanyl)-5-aminobenzyl]-isothiourea trihydrobromide]: 100 to 1000 nM.
`N=C(N)SCCc1ccccc1Sc1ccccc1CCSC(=N)N` [Example 1.31, dihydrobromide]: the IC50 is no less than 1000 nM.
Take `N=C(N)SCc1ccccc1C(=O)c1ccccc1CSC(=N)N` [Example 2.25, 2-(6-(amidinothiomethyl)phenyl)carbonyl-1-(amidinothiomethyl)benzene dihydrobromide]: the 50% inhibitory concentration (IC50) lay within 100 to 1000 nM.
On to `N=C(N)SCc1cc(F)ccc1Oc1ccc([N+](=O)[O-])cc1CSC(=N)N` [Example 2.14, 2-[2-({[amino(imino)methyl]thio}methyl)-4-fluorophenoxy]-5-nitrobenzyl imidothiocarbamate dihydrobromide], for which the half-maximal inhibitory concentration (IC50) was 100 to 1000 nM.
The figure for `N=C(N)SCc1ccccc1Oc1cc(Cl)ccc1CSC(=N)N` [Example 2.18, 2-[2-({[amino(imino)methyl]thio}methyl)-5-chlorophenoxy]benzyl imidothiocarbamate dihydrobromide] is no less than 1000 nM; for `N#CN=C(N)Cc1ccccc1Sc1ccccc1CC(N)=NC#N` [Example 7.1, 2-(6-((cyanoamidino)methyl)phenyl)thio-1-((cyanoamidino)methyl)benzene] it is no less than 1000 nM; for `N=C(N)SCc1ccccc1S(=O)(=O)c1ccccc1CSC(=N)N` [Example 2.3, 2-[2-(2-carbamimidoylsulfanylmethylphenylsulfonyl)benzyl]-isothiourea dihydrobromide] it is no less than 1000 nM.
As to `Cc1ccc(Sc2ccccc2CSC(=N)N)c(CSC(=N)N)c1` [Example 1.10, 2-[2-(2-carbamimidoylsulfanylmethyl-4-methylphenylsulfanyl)-benzyl]isothiourea dihydrobromide], the IC50 lay in the range of 100 to 1000 nM.
Turning to `N=C(N)SCc1ccccc1Oc1ccc(Cl)cc1CSC(=N)N` [Example 2.16, 2-[2-({[amino(imino)methyl]thio}methyl)-4-chlorophenoxy]benzyl imidothiocarbamate dihydrobromide], the half-inhibitory concentration (IC50) was no less than 1000 nM.
On to `N=C(N)SCc1ccccc1Sc1cc(F)ccc1CSC(=N)N` [Example 1.12, 2-[2-(2-carbamimidoylsulfanylmethyl-5-fluorophenylsulfanyl)benzyl]-isothiourea dihydrobromide], for which the half-inhibitory concentration (IC50) was in the range of 100 to 1000 nM.
As to `N=C(N)SCc1cc(F)ccc1Sc1ccc2ccccc2c1CSC(=N)N` [Example 1.14, 2-[2-(1-carbamimidoylsulfanylmethylnaphthalen-2-ylsulfanyl)-5-fluorobenzyl]isothiourea dihydrobromide], the 50% inhibitory concentration (IC50) is no less than 1000 nM.
The figure for `N=C(N)SCc1ccccc1C(=O)c1cc(F)ccc1CSC(=N)N` [Example 2.27, 2-(6-(amidinothiomethyl)phenyl)carbonyl-1-(amidinothiomethyl)-4-fluorobenzene dihydrobromide] is no less than 1000 nM.
Take `N=C(N)SCc1ccccc1-c1ccccc1CSC(=N)N` [Example 9, 2-(2′-carbamimidoylsulfanylmethyl-biphenyl-2-ylmethyl)-isothiourea]: the IC50 was no less than 1000 nM.
The figure for `N=C(N)SCc1ccccc1Sc1ccc(F)cc1CSC(=N)N` [Example 1.2, 2-[2-(2-carbamimidoylsulfanylmethyl-4-fluorophenylsulfanyl)benzyl]-isothiourea dihydrobromide] is 100 to 1000 nM; for `N=C(N)SCc1cc(F)ccc1Oc1cc(F)ccc1CSC(=N)N` [Example 2.12, 2-[2-(2-carbamimidoylsulfanylmethyl-5-fluorophenoxy)-5-fluorobenzyl]isothiourea dihydrobromide] it is 100 to 1000 nM; for `NC(=S)Nc1ccccc1Sc1ccccc1NC(N)=S` [Example 8, 1,1′-(2,2′-thiobis(2,1-phenylene))dithiourea] it is no less than 1000 nM.
Regarding `N=C(N)SCc1cc(F)ccc1Oc1ccc(F)cc1CSC(=N)N` [Example 2.13, 2-[2-(2-carbamimidoylsulfanylmethyl-4-fluorophenoxy)-5-fluorobenzyl]isothiourea dihydrobromide], the IC50 was 100 to 1000 nM.
The figure for `N=C(N)SCc1ccccc1Sc1ccccc1CSC(=N)N` [Example 1.1, 2-[2-(2-carbamimidoylsulfanylmethylphenylsulfanyl)benzyl]isothiourea dihydrobromide] is 100 to 1000 nM.
In the case of `N=C(N)SCc1ccccc1Sc1cc(Cl)ccc1CSC(=N)N` [Example 1.11, 2-[2-(2-carbamimidoylsulfanylmethyl-5-chlorophenylsulfanyl)-benzyl]isothiourea dihydrobromide], the concentration for half-maximal inhibition (IC50) was 100 to 1000 nM.
The same measure for `N=C(N)SCc1cc(Cl)ccc1Oc1ccc([N+](=O)[O-])cc1CSC(=N)N` [Example 2.20, 2-[2-({[amino(imino)methyl]thio}methyl)-4-chlorophenoxy]-5-nitrobenzyl imidothiocarbamate dihydrobromide]: no less than 1000 nM; for `N=C(N)SCc1cc(F)ccc1Sc1cscc1CSC(=N)N` [Example 2.5, (4-{[2-({[amino(imino)methyl]thio}methyl)-4-fluorophenyl]thio}-3-thienyl)methyl imidothiocarbamate dihydrochloride]: 100 to 1000 nM; for `N=C(N)SCc1ccccc1C(=O)c1ccc(F)cc1CSC(=N)N` [Example 2.26, 2-(6-(amidinothiomethyl)phenyl)carbonyl-1-(amidinothiomethyl)-5-fluorobenzene dihydrobromide]: 100 to 1000 nM.
The figure for `N=C(N)SCc1ccccc1Sc1ccc(C(F)(F)F)cc1CSC(=N)N` [Example 1.27, 2-[2-(2-carbamimidoylsulfanylmethylphenylsulfanyl)-5-(trifluoromethyl)benzyl]isothiourea dihydrobromide] is no less than 1000 nM; for `CC(SC(=N)N)c1ccccc1Oc1ccccc1C(C)SC(=N)N` (stereo not shown) [Example 1, 2-(1-{2-[2-(1-carbamimidoylsulfanylethyl)phenoxy]phenyl}ethyl)-isothiourea dihydrobromide] it is no less than 1000 nM; for `N=C(N)SCc1cc(Cl)ccc1Sc1ccc(Cl)cc1CSC(=N)N` [Example 1.22, 2-[2-(2-carbamimidoylsulfanylmethyl-4-chlorophenylsulfanyl)-5-chlorobenzyl]isothiourea dihydrobromide] it is no less than 1000 nM.
The same measure for `CS(=O)(=O)c1ccc(Sc2ccc(F)cc2CSC(=N)N)c(CSC(=N)N)c1` [Example 1.30, 2-[2-(2-carbamimidoylsulfanylmethyl-4-fluorophenylsulfanyl)-5-(methylsulfonyl)benzyl]isothiourea dihydrobromide]: 100 to 1000 nM; for `N#Cc1ccc(Sc2ccc(Cl)cc2CSC(=N)N)c(CSC(=N)N)c1` [Example 2.8, 2-{[2-({[amino(imino)methyl]thio}methyl)-4-chlorophenyl]thio}-5-cyanobenzyl imidothiocarbamate dihydrobromide]: no less than 1000 nM.
For `N=C(N)SCc1ccc(Cl)cc1Oc1cc([N+](=O)[O-])ccc1CSC(=N)N` [Example 2.9, 2-[2-({[amino(imino)methyl]thio}methyl)-5-chlorophenoxy]-4-nitrobenzyl imidothiocarbamate dihydrobromide], the 50% inhibitory concentration (IC50) is no less than 1000 nM.
